{"source": "patent US20170340693A1", "about": "“DISLODGEMENT AND RELEASE OF HSC USING ALPHA 9 INTEGRIN ANTAGONIST AND CXCR4 ANTAGONIST” (COMMONWEALTH SCIENTIFIC AND INDUSTRIAL RESEARCH ORGANISATION, priority 2014, published 2017)", "molecules": {"B1": {"name": "G-CSF: recombinant granulocyte-colony stimulating factor (protein, UniProt P09919 31-207, looked up)", "Granulocyte …": "TPLGPASSLPQSFLLKCLEQVRKIQGDGAALQEKLVSECATYKLCHPEELVLLGHSLGIPWAPLSSCPSQALQLAGCLSQLHSGLFLYQGLLQALEGISPELGPTLDTLQLDVADFATTIWQQMEELGMAPALQPTQGAMPAFASAFQRRAGGVLVASHLQSFLEVSYRVLRHLAQP"}}, "key": {"[1]": {"tested_on": "progenitors (LSK) and HSC (LSKSLAM) in peripheral blood", "test": "HSC mobilization to peripheral blood in mice", "type": "in vivo", "method": "(§1) For mobilization experiments, all mice received subcutaneous injections at 100 μl/10 gm body weight and PB was harvested by throat bleed using EDTA coated syringes.\n(a) R-BC154 (IXb) and BOP. Mice received a single injection of freshly prepared solutions of R-BC154 (IXb) and BOP in saline at the doses indicated before PB was harvested by throat bleed at the times indicated.\n(b) G-CSF. Mice received G-CSF at 250 μg/kg twice daily (500 ug/kg/day), 6-8 hours apart for 4 consecutive days. Groups receiving G-CSF and BOP received the standard G-CSF regime as described above followed by a single injection of BOP 1 h prior to harvest. Control mice received an equal volume of saline.\n(§2) Mice received subcutaneous injections at 100 μl/10 gm body weight of a single injection of BOP (up to 15 mg/kg) for various timeframes, a single BIO5192 injection at 1 mg/kg for 1 hour, a single AMD3100 injection at 3 mg/kg for 1 hour (mice also receiving BOP or BIO15192 were injected with a single dose of BOP or BIO15192 1 hour prior to harvest), or G-CSF at 250 μg/kg twice daily (500 μg/kg/day), 6-8 hours apart for 4 consecutive days (mice also receiving BOP and/or AMD3100 were injected with a single dose of BOP and/or AMD3100 1 h prior to harvest). Control mice received an equivalent volume of saline or 10% HPβCD/saline where appropriate."}, "[2]": {"tested_on": "LPP-CFC and HPP-CFC", "test": "Low- and high-proliferative potential colony-forming cell assays of mobilized PB", "parameters": "species or system mice", "conditions": "mouse, in vivo", "method": "Low- and high-proliferative potential colony-forming cells (LPP-CFC and HPP-CFC, respectively) were assayed as previously described in J. Grassinger et al Cytokine, 2012, 58, 218-225 and Bartelmez, S. H. et al Experimental hematology 17, 240-245 (1989). Briefly, mobilized PB were lysed and 4000 WBCs were plated in 35 mm Petri dishes in a double-layer nutrient agar culture system containing recombinant mouse stem cell factor and recombinant human colony-stimulating factor-1, interleukin-1α (IL-1α), and IL-3. Cultures were incubated at 37° C. in a humidified incubator at 5% O2, 10% CO2, 85% N2. LPP-CFC and HPP-CFC were enumerated at 14 days of incubation as previously described in J. Grassinger, et al (2012)."}, "[3]": {"tested_on": "human WBC and human CD34+ stem and progenitors", "test": "Mobilization of humanised NSG (huNSG) mice", "type": "in vivo", "conditions": "single dose, G-CSF multiple doses for 4-days", "from_the_text": "Humanised NSG mice were generated by tail vein injection of freshly sorted cord blood CD34^+ cells (>150 k) with 2×10^6 irradiated mononuclear support cells. After 4-weeks post-transplantation, NSG mice were eyebled and assessed for huCD45 and muCD45. Under these conditions, >90% humanisation was achieved as determined by flow cytometric analysis based on % huCD45 relative to total % CD45. Humanised NSG mice were given at least 1 week to recover prior to experimentation. Mice were mobilized under the relevant conditions specified in “Mobilization protocols” and PB subsequently collected by throatbleed, lysed and immunolabelled as described in “Antibody cocktails”.\nas §2"}, "[4]": {"tested_on": "WBC in peripheral blood", "test": "PB white blood cell / lymphocyte content after mobilization", "type": "in vivo, mice", "conditions": "for WBC counts: peripheral blood after administration", "method": "as §1, §2"}, "[5]": {"target": "α4β1 (Homo sapiens, UniProt P05556+P13612)", "sequence (P13612 34-1032)": "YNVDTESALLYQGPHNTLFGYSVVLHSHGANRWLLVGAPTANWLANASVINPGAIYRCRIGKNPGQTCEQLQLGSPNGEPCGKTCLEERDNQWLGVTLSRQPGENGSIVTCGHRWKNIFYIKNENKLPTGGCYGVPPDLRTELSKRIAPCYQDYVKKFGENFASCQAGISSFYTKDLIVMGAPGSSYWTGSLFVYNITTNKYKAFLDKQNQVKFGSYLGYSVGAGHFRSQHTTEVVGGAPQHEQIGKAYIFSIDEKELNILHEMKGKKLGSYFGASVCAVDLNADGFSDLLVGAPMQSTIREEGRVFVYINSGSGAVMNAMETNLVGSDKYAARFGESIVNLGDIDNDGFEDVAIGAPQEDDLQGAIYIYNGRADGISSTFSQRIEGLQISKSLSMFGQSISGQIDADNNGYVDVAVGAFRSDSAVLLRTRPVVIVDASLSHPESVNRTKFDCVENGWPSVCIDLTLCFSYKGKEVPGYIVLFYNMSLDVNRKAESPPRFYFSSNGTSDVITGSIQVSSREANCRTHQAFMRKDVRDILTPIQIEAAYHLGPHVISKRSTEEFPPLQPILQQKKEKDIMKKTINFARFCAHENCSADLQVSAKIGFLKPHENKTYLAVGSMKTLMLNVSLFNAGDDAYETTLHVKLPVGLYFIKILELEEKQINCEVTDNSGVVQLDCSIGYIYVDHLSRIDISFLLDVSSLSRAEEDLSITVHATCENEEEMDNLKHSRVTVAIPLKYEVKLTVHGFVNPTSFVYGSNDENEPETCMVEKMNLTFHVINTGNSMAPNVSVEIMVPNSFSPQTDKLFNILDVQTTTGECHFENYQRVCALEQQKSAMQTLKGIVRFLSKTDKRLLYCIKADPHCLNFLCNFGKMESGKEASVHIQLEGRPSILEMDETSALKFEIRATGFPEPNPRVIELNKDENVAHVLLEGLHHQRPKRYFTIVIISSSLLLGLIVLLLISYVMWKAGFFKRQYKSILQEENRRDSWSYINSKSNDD", "sequence (P05556 21-798)": "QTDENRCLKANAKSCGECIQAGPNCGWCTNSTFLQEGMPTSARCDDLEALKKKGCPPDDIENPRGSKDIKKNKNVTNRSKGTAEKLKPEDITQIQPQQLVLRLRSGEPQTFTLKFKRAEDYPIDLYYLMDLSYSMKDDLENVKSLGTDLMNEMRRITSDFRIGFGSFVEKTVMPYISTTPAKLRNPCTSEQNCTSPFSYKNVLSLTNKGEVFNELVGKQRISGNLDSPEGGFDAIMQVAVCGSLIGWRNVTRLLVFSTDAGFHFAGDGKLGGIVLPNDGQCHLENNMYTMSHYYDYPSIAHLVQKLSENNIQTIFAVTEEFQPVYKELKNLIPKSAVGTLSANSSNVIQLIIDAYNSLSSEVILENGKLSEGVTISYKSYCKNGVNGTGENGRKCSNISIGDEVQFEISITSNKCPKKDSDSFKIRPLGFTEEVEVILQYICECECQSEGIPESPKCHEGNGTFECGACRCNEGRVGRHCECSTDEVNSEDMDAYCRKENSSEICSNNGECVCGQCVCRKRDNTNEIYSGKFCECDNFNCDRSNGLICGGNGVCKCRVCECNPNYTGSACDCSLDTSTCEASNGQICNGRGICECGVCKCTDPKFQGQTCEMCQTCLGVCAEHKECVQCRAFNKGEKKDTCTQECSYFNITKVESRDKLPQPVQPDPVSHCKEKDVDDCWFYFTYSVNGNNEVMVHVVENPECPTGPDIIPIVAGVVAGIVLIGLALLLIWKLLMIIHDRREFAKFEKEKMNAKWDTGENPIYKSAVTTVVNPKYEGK", "conditions": "cited from earlier work"}, "[6]": {"target": "T1, α9β1 (Homo sapiens, UniProt P05556+Q13797)", "T1 construct": "expressed in transfected cells; host or cells: LN18 (ATCC CRL-2610), retrovirally transduced; endogenous α4 silenced with pSM2c-shITGA4", "T1 sequence (Q13797 30-1035)": "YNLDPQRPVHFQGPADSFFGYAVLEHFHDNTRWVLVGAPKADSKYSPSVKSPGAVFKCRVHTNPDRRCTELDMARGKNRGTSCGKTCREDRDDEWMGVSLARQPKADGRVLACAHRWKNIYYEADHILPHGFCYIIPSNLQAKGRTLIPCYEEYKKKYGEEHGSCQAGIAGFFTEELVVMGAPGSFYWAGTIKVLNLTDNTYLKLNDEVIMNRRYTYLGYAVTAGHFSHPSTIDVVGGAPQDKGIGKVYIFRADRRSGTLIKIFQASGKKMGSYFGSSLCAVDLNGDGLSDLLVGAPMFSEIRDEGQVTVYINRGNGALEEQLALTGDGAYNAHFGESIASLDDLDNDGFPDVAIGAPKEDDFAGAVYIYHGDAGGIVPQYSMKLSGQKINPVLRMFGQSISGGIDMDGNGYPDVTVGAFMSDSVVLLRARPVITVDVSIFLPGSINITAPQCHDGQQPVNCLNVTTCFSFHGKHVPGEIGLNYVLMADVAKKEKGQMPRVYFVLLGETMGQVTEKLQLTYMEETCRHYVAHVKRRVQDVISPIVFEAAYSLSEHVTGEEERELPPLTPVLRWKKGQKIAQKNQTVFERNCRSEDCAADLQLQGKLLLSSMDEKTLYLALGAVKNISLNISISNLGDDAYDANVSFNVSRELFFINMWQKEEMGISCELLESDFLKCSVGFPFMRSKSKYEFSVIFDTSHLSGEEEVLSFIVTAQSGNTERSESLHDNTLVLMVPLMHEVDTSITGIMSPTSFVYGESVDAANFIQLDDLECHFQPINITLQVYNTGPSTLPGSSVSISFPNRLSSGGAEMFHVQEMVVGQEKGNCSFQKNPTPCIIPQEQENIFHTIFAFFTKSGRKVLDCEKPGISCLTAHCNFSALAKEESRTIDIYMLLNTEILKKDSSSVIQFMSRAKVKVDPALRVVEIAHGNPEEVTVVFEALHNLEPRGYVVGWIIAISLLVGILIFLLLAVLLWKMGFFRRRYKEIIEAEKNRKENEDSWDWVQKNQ", "T1 sequence (P05556 21-798)": "as the sequence (P05556 21-798) above", "test": "Inhibition of R-BC154 (IXb) binding, transduced LN18 cells and CHO cells, flow cytometry", "parameters": "species or system human and murine", "conditions": "R-BC154 100 nM, antagonist 1 μM, 1 mM CaCl2MgCl2, 0° C. 30 min", "method": "(§3) For the assessment of α9β1 contribution to R-BC154 (IXb) binding, human and murine cells were stained with R-BC154 (100 nM) in the absence of competing antagonist or in the presence of excess amounts of the selective α4β1 antagonist BIO5192 (1 μM) or dual α4β1/α9β1 antagonist BOP (1 μM) in PBS containing 0.5% BSA and 1 mM CaCl2MgCl2 at 0° C. for 30 min. Cells were washed, immunolabelled as described above and analysed by flow cytometry. The contribution of α9β1 binding was calculated by measuring the difference in MFI between R-BC154 (IXb)+BIO5192 and +BOP and expressed as a % of R-BC154 (IXb) alone."}, "[7]": {"tested_on": "cord blood (CB) mononuclear cells (MNC)", "test": "R-BC154 (IXb) binding to cord blood mononuclear cell populations, flow cytometry", "type": "cell-based, human", "conditions": "R-BC154 (100 nM) in the presence of excess selective α4β1 antagonist BIO5192 (1 μM) or dual α4β1/α9β1 antagonist BOP (1 μM)", "method": "For in vitro labelling experiments, 5×10^6 BM cells from C57 mice, conditional α4^−/−/α9^−/− mice and humanised NODSCIDIL2Rγ^−/− mice and human cord blood MNCs were treated with R-BC154 (IXb) (up to 300 nM) in PBS (0.5% BSA) or TBS (0.5% BSA) containing either 1 mM CaCl2/MgCl2 (activating) or 10 mM EDTA (deactivating) at 40×10^6 cells/ml for 20 mins at 4° C. Cells were washed with cold PBS (2% FBS) and then immunolabelled as described in “Antibody Cocktails” prior to flow cytometric analysis. For in vivo experiments, C57BL/6 mice, α4^−/−/α9^−/− vav-cre mice and humanised NODSCIDIL2Rγ^−/− mice received either intravenous or subcutaneous injections of R-BC154 (IXb) (5-10 mg/kg) at 100 ul/10 gm mouse weight and analysed as described above.\nas §3"}, "[8]": {"target": "α9β1 integrin (Homo sapiens, UniProt P05556+Q13797)", "sequence (Q13797 30-1035)": "as the sequence (Q13797 30-1035) above", "sequence (P05556 21-798)": "as the sequence (P05556 21-798) above", "test": "Inhibition of integrin binding to VCAM-1 and Opn in vitro"}, "[9]": {"tested_on": "endosteal LSK", "test": "In vivo BOP binding to endosteal versus central progenitors", "parameters": "species or system mice", "conditions": "mouse", "text": "Data is pooled from two independent experiments. n>6 (e) Analysis of in vivo BOP binding to endosteal versus central progenitors (LSK) and HSC (LSKSLAM) following the administration of BOP alone or BOP in combination with AMD3100. […] P<0.05"}, "[10]": {"tested_on": "α4β1 or α9β1 LN18 cells", "conditions": "Pepinsky et al (2002); cited from earlier work"}, "[11]": {"target": "α4β1 integrin (Homo sapiens, UniProt P05556+P13612)", "sequence (P13612 34-1032)": "as the sequence (P13612 34-1032) above", "sequence (P05556 21-798)": "as the sequence (P05556 21-798) above", "test": "Inhibition of integrin binding to VCAM-1 and Opn in vitro"}}, "note": "Counter-ions that a name gives are not always drawn.", "data": [{"molecule": "c1cc(CN2CCCNCCNCCCNCC2)ccc1CN1CCCNCCNCCCNCC1", "note": "[AMD3100, I,r-[I,4-Phenylenebis(methylene)]bis [1,4,8,11-tetraazacyclotetradecane]octohydrobromide dehydrate, reference compound]", "values": [{"measurement": "increase in the proportion of progenitors (LSK cells) in the PB relative to BOP", "setting": "[1]; mouse, in vivo", "value": "comparable increases"}, {"measurement": "HPP-CFC content of mobilized PB relative to the saline control", "setting": "[2]", "value": "greater"}, {"measurement": "LPP-CFC content of mobilized PB relative to the saline control", "setting": "[2]", "value": "greater"}, {"measurement": "increase in PB human WBC or human CD34 stem and progenitors", "setting": "[3]", "value": "did not result in a significant increase"}, {"measurement": "WBC counts", "setting": "[4]", "value": "7.8±1.5 ×10^6/ml"}]}, {"molecule": "Cc1ccccc1NC(=O)Nc1ccc(CC(=O)N(C)[C@@H](CC(C)C)C(=O)NCC[C@H](NC(=O)[C@@H]2CCCN2S(=O)(=O)c2cc(Cl)cc(Cl)c2)C(=O)O)cc1", "note": "[BIO5192, reference compound]", "values": [{"measurement": "increases in WBC counts, progenitors (LSK) and HSC (LSKSLAM) in the PB", "setting": "[1]; Intravenous administration, alone", "value": "moderate increases"}, {"measurement": "Kd", "setting": "[5]", "value": "< 10", "unit": "pM"}, {"measurement": "inhibition of R-BC154 (IXb) binding to α9β1", "setting": "[6]", "value": "did not inhibit"}, {"measurement": "inhibition of R-BC154 (IXb) binding to CB HSC and progenitors", "setting": "[7]", "value": "partial inhibition"}, {"measurement": "inhibition of R-BC154 (IXb) binding to CB lineage committed cells", "setting": "[7]", "value": "complete inhibition"}]}, {"molecule": "O=C(O)[C@H](Cc1ccc(OC(=O)N2CCCC2)cc1)NC(=O)[C@@H]1CCCN1S(=O)(=O)c1ccccc1", "note": "[BOP, N-(Benzenesulfonyl)-L-prolyl-L-O-(1-pyrrolidinylcarbonyl)tyrosine]", "values": [{"measurement": "inhibitory potency, α9β1 binding to VCAM-1 and Opn", "setting": "[8]", "value": "nanomolar inhibitory potencies"}, {"measurement": "binding of BOP to endosteal LSK relative to their central counterparts in vivo", "setting": "[9]", "value": "significantly greater binding of BOP"}, {"measurement": "time of peak PB HSC", "setting": "[1]; mouse, in vivo", "value": 1, "unit": "h"}, {"measurement": "increase in the proportion of HSC (LSKSLAM cells) in the PB relative to AMD3100", "setting": "[1]; p<0.05", "value": "significantly greater increase"}, {"measurement": "increase in PB progenitors (LSK) and HSC (LSKSLAM)", "setting": "[1]; single agent, single dose", "value": "rapid, significant and dose dependent increase"}, {"measurement": "return of PB progenitors and HSC to baseline post-administration", "setting": "[1]; single dose", "value": "≤ 4", "unit": "h"}, {"measurement": "time of peak PB progenitors and HSC after a single dose", "setting": "[1]; subcutaneous", "value": 60, "unit": "min"}, {"measurement": "inhibition of R-BC154 (IXb) binding to α9β1", "setting": "[6]", "value": "> 95", "unit": "%"}, {"measurement": "HPP-CFC content of mobilized PB relative to the saline control", "setting": "[2]", "value": "greater"}, {"measurement": "LPP-CFC content of mobilized PB relative to the saline control", "setting": "[2]", "value": "greater"}, {"measurement": "inhibition of R-BC154 (IXb) binding to all CB cell populations", "setting": "[7]", "value": "complete inhibition"}, {"measurement": "off-rates for α9β1 compared to α4β1", "setting": "[10]", "value": "significantly reduced off-rates"}, {"measurement": "inhibitory potency, α4β1 binding to VCAM-1 and Opn", "setting": "[11]", "value": "nanomolar inhibitory potencies"}, {"measurement": "increase in PB human WBC or human CD34 stem and progenitors", "setting": "[3]", "value": "did not result in a significant increase"}, {"measurement": "WBC counts", "setting": "[4]", "value": "7.0±0.8 ×10^6/ml"}, {"measurement": "total PB lymphocytes decreased to baseline", "setting": "[4]; single dose", "value": "≤ 18", "unit": "h"}]}, {"molecule": "B1", "values": [{"measurement": "progenitors mobilized, G-CSF alone versus single dose of BOP and AMD3100", "setting": "[1]; 4-days of G-CSF", "value": "significantly greater number of progenitors"}, {"measurement": "increase in PB human WBC or human CD34 stem and progenitors", "setting": "[3]", "value": "did not result in a significant increase"}]}]}
